Results on three compounds are retold here after paper PMC10952895, “Assessment of the potential of novel and classical opioids to induce respiratory depression in mice” (British Journal of Pharmacology, 2023).

The assay has as its system T1, μ-receptor (μ-receptor-RLuc8).
T1 construct: gene Oprm1; construct from Gillis, Gondin et al. 2020
Kind of assay: BRET, Nb33-Venus recruitment to μ-receptor-RLuc8 in HEK293 cells. It is filed as cell-based. As to conditions: agonist; 10 min after addition, normalised to DAMGO.
With `COc1ccsc1CNCC[C@@]1(c2ccccn2)CCOC2(CCCC2)C1` [oliceridine], the pEC50 came to 6.8 ± 0.1.

`COc1ccc2c3c1O[C@H]1C(=O)CC[C@@]4(O)[C@@H](C2)N(C)CC[C@]314` [oxycodone]: the pEC50 is 5.8 ± 0.05.

The compound `CN1c2ccccc2C(NCCCCCCC(=O)O)c2ccc(Cl)cc2S1(=O)=O` (stereo not drawn) [tianeptine] returned a pEC50 of 5.8 ± 0.07.
